Reference: article PMC2361071, “A phase I and pharmacokinetic study of novel taxane BMS-188797 and cisplatin in patients with advanced solid tumours” (British Journal of Cancer, 2005)
Entries after “also recorded” stand apart in the source; their conditions may differ. Where two headings read alike, the source gives them in different places.

Columns and labels:
patients = test system: patients; parameters: method as in Sullivan et al, 2001; conditions: ref Sullivan et al, 2001, cited from earlier work
[1] = test system: human tumour cell lines highly resistant to paclitaxel; parameters: method as in Rose et al, 2001; conditions: ref Rose et al, 2001, cited from earlier work
[2] = test system: patients with advanced malignancies; parameters: method as in Advani et al (2003); conditions: single agent, weekly administration; ref Advani et al (2003); cited from earlier work
[3] = Plasma pharmacokinetics of BMS-188797 in patients, cycle 1 (HPLC, noncompartmental analysis); format: in vivo, human; conditions: for AUC(0-inf) / Cmax / half-life: human, plasma, intravenous
Description: In all, 5 ml of blood were collected for pharmacokinectic analysis using Becton-Dickenson Vacutainers® that contained K3EDTA as the anticoagulant. Blood sampling for pharmacokinetics analysis was performed in all patients during cycle 1. Serial blood samples were drawn at the following times relative to the start of the 1 h infusion of BMS-188797: predose, 30 min, 58 min (drawn prior to the end of the infusion), and 1.25, 1.5, 2, 2.5, 3, 4, 5, 6, 8, 24, 48 and 72 h. Within 1 h of collection, the plasma was separated by centrifugation at 1000 rpm for 15 min at 4°C. Plasma was stored at or below […] until analysis. Plasma samples were analysed for BMS-188797 concentrations by HPLC. After the addition of internal standard, BMS-183061, to 1.0 ml of plasma, the sample was loaded onto a CN-U solid-phase extraction column. The compounds were eluted with 0.1% formic acid in methanol, the eluate evaporated to dryness, and the residue reconstituted. Chromatographic separation of the compounds was achieved on a YMC-ODS-AQ, 4.6 × 150 mm, 3 μm column using a mobile phase containing 30% water in acetonitrile. Detection was by ultraviolet absorbance at 228 nm. The standard curve range was 2–1000 ng ml^−1. The coefficient of variation (CV) for the between- and within-run precision for analytical quality control samples were no greater than 3.0 and 7.1%, respectively
Estimates of pharmacokinetic parameters for BMS-188797 were derived from individual concentration–time data sets by noncompartmental analyses ([Gibaldi and Perrier, 1982]). The values of the maximum plasma concentration (Cmax) were recorded directly from experimental observations. The area under the plasma concentration vs. time curve from time zero to the time of the last measurable concentration T (AUC0-T) was calculated using a combination of linear and log trapezoidal summations. The first-order rate constant of decline of BMS-188797 concentrations in the terminal phase of the plasma concentration–time data set, λ, was estimated by log-linear regression, using no weighting factor, of at least three data points yielding a minimum mean square error. The absolute value of λ was used to estimate the apparent terminal elimination half-life, t1/2. The last measurable concentration and the rate constant, λ, were used to extrapolate the AUC0-T to estimate AUC0-∞ (the area under the curve from time zero to infinity). The total body clearance (Cl) was calculated by dividing the dose by AUC0-∞. The volume of distribution at steady state (VSS) was calculated using standard noncompartmental methods.

[4] = test system: patients with advanced malignancies; parameters: method as in Advani et al, 2002; conditions: weekly BMS-188797 with carboplatin, DLs AUC 6/33 mg m−2 and AUC 5/43 mg m−2, preliminary data; ref Advani et al, 2002; cited from earlier work
[5] = test system: paclitaxel-resistant tumour models in mice; parameters: method as in Rose et al, 2001; conditions: ref Rose et al, 2001; cited from earlier work
[6] = test system: patients with advanced solid tumours; assay: Phase I dose escalation of BMS-188797 plus cisplatin: DLT, MTD and toxicity (NCI CTC v2.0); format: in vivo
Description: This study was an open-label, single-centre, phase I, dose-escalation trial with the primary objective to determine the MTD and DLT and to recommend a future phase II dose. Secondary objectives were safety, antitumour activity and pharmacokinetics of the experimental drug. The study was carried out with ethical committee approval.
BMS-188797 administered by a 1-h infusion was followed by a 1-h infusion of cisplatin starting 30 min after the end of the BMS-188797 infusion; both drugs were given on day 1, every 3 weeks. Six treatment cycles were planned. Treatment had to be discontinued upon progression or occurance of intolerable toxicity.
If no further DLT occurred, the next DL was opened. If the total number of patients with DLT at any DL was two or higher, then dose escalation was terminated and additional patients were enrolled at the next lower DL. The MTD was defined as the DL at which none of the three or one of six patients experienced a DLT. Once the MTD had been established, accrual at the respective DL was expanded to determine its suitability as the recommended phase II dose.
The DLT was defined as first-course toxicity with ANC <500 μl^−1 for ⩾5 days, or febrile neutropenia (fever >38.5°C and ANC <1000 μl^−1), or thrombocytopenia <25,000 μl^–1; or bleeding requiring platelet transfusion, or any other drug-related grade ⩾3 toxicity except fatigue/asthenia, transient arthralgia/myalgia, or grade 3 AST/ALT elevation (resolving to baseline within 3 weeks). Furthermore, delayed recovery from toxicity related to treatment with BMS-188797 and cisplatin that delayed scheduled retreatment for 21 days or longer was regarded as DLT.
(§1) Toxicity was evaluated according to NCI CTC (Vers. 2.0; revised April 30, 1999) in all patients receiving study drug. Tumour measurement was performed in patients with measurable disease after every other cycle; response was assessed according to World Health Organization (WHO) criteria. Ascites or serum tumour marker elevations were not considered in the assessment of response status except in case of progressive disease or complete remission when both had to be normalised.

[7] = test system: patients with advanced malignancies; parameters: method as in Sullivan et al, 2000; conditions: single agent, 1-h infusion every 3 weeks; ref Sullivan et al, 2000; cited from earlier work
[8] = test system: patients with advanced solid tumours; assay: Antitumour activity, response by WHO criteria; format: in vivo, human
Description: as §1

[9] = 80 mg m−2 1-h infusion with cisplatin 75 mg m−2, cycle 1, n=3, mean±s.d.
[10] = 110 mg m−2 1-h infusion with cisplatin 75 mg m−2, cycle 1, n=12, mean±s.d.
[11] = 150 mg m−2 1-h infusion with cisplatin 75 mg m−2, cycle 1, n=1
[12] = mean±s.d. of the three dose groups (80, 110, 150 mg m−2), cycle 1
[13] = 1-h infusion every 3 weeks combined with cisplatin 75 mg m−2

For `COC(=O)O[C@@]12CO[C@@H]1C[C@H](O)[C@@]1(C)C(=O)[C@H](OC(C)=O)C3=C(C)[C@@H](OC(=O)[C@H](O)[C@@H](NC(=O)c4ccccc4)c4ccccc4)C[C@@](O)([C@@H](OC(=O)c4ccccc4)[C@H]21)C3(C)C` [BMS-188797, 4-desacetyl-4-methyl carbonate derivate of paclitaxel], the MTD (patients; with carboplatin AUC 5, every 3 weeks) is given as 125 mg m^−2, the “Dose-limiting toxicities (DLT)” value (patients; with carboplatin, every 3 weeks) is given as “febrile neutropenia and slow recovery from neutropenia” and the antiproliferative activity ([1]; cell lines resistant through P-glycoprotein overexpression or beta-tubulin mutations) is given as “potent antiproliferative activity”. The cell cycle effect [1] was “G2/M cell cycle arrest”, the MTD [2] was 50 mg m^−2 and the Cl [3, 9] was 333±14 (317, 344) ml min−1 m−2. For the same compound, the VSS [3, 9] was 331±135 (214, 478) l m−2, the “interpatient coefficient of variation of CL” value ([3]; 110 mg m−2) was 19% and the “interpatient coefficient of variation of VSS” value ([3]; 110 mg m−2) was 35%. For the same compound, the “interpatient coefficient of variation of t1/2” value ([3]; 110 mg m−2) was 24%, the Cl [3, 10] was 322±60 (234, 437) ml min−1 m−2 and the VSS [3, 10] was 244±86 (115, 395) l m−2. For the same compound, the “range of AUC0-∞ values” ([3]; 110 mg m−2 DL) was 1.8 fold, the Cl [3, 11] was 206 NA ml min−1 m−2 and the VSS [3, 11] was 209 NA l m−2. The “dose dependence (linearity) of pharmacokinetics” value ([3]; 80-150 mg m−2 with cisplatin 75 mg m−2) was “appeared linear through the 110 mg m^−2, but not through the 150 mg m^−2 DL; also recorded: appeared independent of dose through the 110 mg m^−2 DL, but not through the 150 mg m^−2 DL; also recorded: appeared linear through a DL of 110 mg m^−2”, the AUC(0-inf) [3, 9] was 4000 ± 184 ng·h/mL and the Cmax [3, 9] was 2650 ± 690 ng/mL. It also gave a half-life ([3]; 80 mg m−2 1-h infusion with cisplatin 75 mg m−2, cycle 1, n=3, mean±s.d., read-out: t1/2 (converted)) of 31 ± 11.7 h, an AUC(0-inf) [3, 10] of 5870 ± 1060 ng·h/mL and a Cmax [3, 10] of 3370 ± 591 ng/mL. The half-life ([3]; 110 mg m−2 1-h infusion with cisplatin 75 mg m−2, cycle 1, n=12, mean±s.d., read-out: t1/2 (converted)) was 30.6 ± 7.5 h, the AUC(0-inf) [3, 11] was 12200 ng·h/mL and the Cmax [3, 11] was 5770 ng/mL. For the same compound, the half-life ([3]; 150 mg m−2 1-h infusion with cisplatin 75 mg m−2, cycle 1, n=1, read-out: t1/2 (converted)) was 31.4 h, the half-life ([3]; 150 mg, mean±s.d. of the three dose groups (80, 110, 150 mg m−2), cycle 1, read-out: terminal half-life (converted)) was 30.8 ± 7.7 h and the clearance [3, 12] was 317±60 ml min^−1 m^−2. For the same compound, the “volume of distribution at steady state” value [3, 12] was 258±96 l m^−2, the “clearance in the 150 mg m−2 patient relative to patients at 80 or 110 mg m−2” value ([3]; n=1 at 150 mg m−2) was “approximately one-third lower” and the dose-limiting toxicities [4] was “prolonged grade 4 neutropenia and delayed haematological recovery”. The in vivo activity [5] was “potent in vivo activity”, the “Mild hypersensitivity reactions (grade 2 rash and dyspnea), patients affected” value ([6]; 110 mg m−2 DL, with steroid and H1/H2-antagonist premedication) was “only one patient” and the “maximum tolerated dose (MTD)” value [6, 13] was 110 mg m^−2. The “recommended phase II dose” value [6, 13] was 110 mg m^−2, the “median duration of neutropenia” value ([6]; DL 1, 80 mg m−2) was 4 days and the “median time to the neutrophil nadir” value ([6]; DL 1, 80 mg m−2) was 12 days. For the same compound, the “median duration of neutropenia” value ([6]; DL 2, 110 mg m−2) was 8 days, the “median time to the neutrophil nadir” value ([6]; DL 2, 110 mg m−2) was 14 days and the “MTD (dose level designated)” value ([6]; DL 2, 110 mg m−2 with cisplatin 75 mg m−2) was “MTD”. The “median duration of neutropenia” value ([6]; DL 3, 150 mg m−2) was 4 days, the “median time to the neutrophil nadir” value ([6]; DL 3, 150 mg m−2) was 8 days and the “alopecia, patients affected” value ([6]; all dose levels, 16 patients) was “All patients but one”. For the same compound, the “maximum tolerated dose (MTD)” value [7] was 175 mg m^−2, the “stable disease as best response, patients” value ([8]; DL 1, 80 mg m−2 with cisplatin, ovarian cancer, NSCLC, CUP) was “three patients” and the “progressive disease, patients” value ([8]; DL 2, 110 mg m−2 with cisplatin, lung cancer (two), ovarian sarcoma, CUP) was “Four patients”. The complete remissions ([8]; DL 2, 110 mg m−2 with cisplatin, ovarian (two) and cervical cancer (one)) was “three complete remissions”, the partial response ([8]; DL 2, 110 mg m−2 with cisplatin, ovarian cancer) was “One partial response” and the “stable disease, patients” value ([8]; DL 2, 110 mg m−2 with cisplatin, urachus carcinoma and NSCLC) was “two patients”. The “best response of the only patient treated” value ([8]; DL 3, 150 mg m−2 with cisplatin, CUP) was “disease progression” and the “objective response, patients” value ([8]; all dose levels, 16 patients) was “four patients”.
